Assay results taken from patent publication US9579319B2 (Redx Pharma PLC, priority 2013, dated 2017).
pIC50: −log10 of the molar value.

tested on: Hedgehog signalling pathway; experiment: Gli-reporter NIH3T3 luciferase assay (Hedgehog pathway inhibition); assay type: cell-based; conditions: NIH3T3; Gli-reporter NIH-3T3 cells, recombinant mouse sonic hedgehog, 24 hours, luminescence; read-out: Category (Hedgehog pathway inhibition activity, IC50)
Summary of the method: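 Mouse NIH3T3 cells with Gli-responsive luciferase reporter, pre-treated 1 h with compound (top final concentration 1 μM, 0.1% DMSO) in 0.5% calf serum medium. Then stimulated with recombinant mouse sonic hedgehog for 24 h at 37° C. Luminescence read-out (OneGLO), triplicates; IC50 reported.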

SMILES	pIC50
Cn1nccc1-c1nnc(N2CCC(NCc3ccc(C(F)(F)F)cc3)CC2)c2ccccc12 [Example 37, 1-[4-(2-methylpyrazol-3-yl)phthalazin-1-yl]-N-[[4-(trifluoromethyl)phenyl]methyl]piperidin-4-amine]	6.70 to 8.00
Cn1nccc1-c1nnc(N2CCC(NC(=O)Nc3ccc(F)cc3C(F)(F)F)CC2)c2ccccc12 [Example 23, 1-[4-fluoro-2-(trifluoromethyl)phenyl]-3-[1-[4-(2-methylpyrazol-3-yl)phthalazin-1-yl]-4-piperidyl]urea]	> 8.00
CSc1ccccc1CNC1CCN(c2nnc(-c3ccnn3C)c3ccccc23)CC1 [Example 17, 1-[4-(2-methylpyrazol-3-yl)phthalazin-1-yl]-N-[(2-methylsulfanylphenyl)methyl]piperidin-4-amine]	6.70 to 8.00
COc1cccc(CN(C)C2CCN(c3nnc(-c4ccnn4C)c4ccccc34)CC2)c1 [Example 62, N-[(3-methoxyphenyl)methyl]-N-methyl-1-[4-(2-methylpyrazol-3-yl)phthalazin-1-yl]piperidin-4-amine]	6.70 to 8.00

same assay, conditions: NIH3T3; Gli-reporter NIH-3T3 cells, recombinant mouse sonic hedgehog, 24 hours, luminescence; read-out: Gli Luc nM (IC50)

SMILES	IC50
Cn1nccc1-c1nnc(N2CCC(NC(=O)Nc3ccc(F)cc3C(F)(F)F)CC2)c2ccccc12 [Example 23, 1-[4-fluoro-2-(trifluoromethyl)phenyl]-3-[1-[4-(2-methylpyrazol-3-yl)phthalazin-1-yl]-4-piperidyl]urea]	0.66 nM

same assay, conditions: NIH3T3; Gli-reporter NIH-3T3 cells, recombinant mouse sonic hedgehog, 24 hours, luminescence; read-out: Gli luc IC50

SMILES	pIC50
Cn1nccc1-c1nnc(N2CCC(NCc3cccc(C#N)c3)CC2)c2c1CCC2 [Example 149, 3-[[[1-[1-(2-methylpyrazol-3-yl)-6,7-dihydro-5H-cyclopenta[d]pyridazin-4-yl]-4-piperidyl]amino]methyl]benzonitrile]	< 6.70
CN(Cc1ccc(F)cc1C(F)(F)F)C1CCN(c2nnc(-c3ccnn3C)c3ncccc23)CC1 [Example 130, N-[[4-fluoro-2-(trifluoromethyl)phenyl]methyl]-N-methyl-1-[8-(2-methylpyrazol-3-yl)pyrido[2,3-d]pyridazin-5-yl]piperidin-4-amine]	< 6.70
Cn1nccc1-c1nnc(N2CCC(NCc3ccc(F)c(C#N)c3)CC2)c2c1CCC2 [Example 128, 2-fluoro-5-[[[1-[1-(2-methylpyrazol-3-yl)-6,7-dihydro-5H-cyclopenta[d]pyridazin-4-yl]-4-piperidyl]amino]methyl]benzonitrile]	< 6.70
Cn1nccc1-c1nnc(N2CCC(NC(=O)Nc3ccc(F)cc3F)CC2)c2cnccc12 [Example 104, 1-(2,4-difluorophenyl)-3-[1-[1-(2-methylpyrazol-3-yl)pyrido[3,4-d]pyridazin-4-yl]-4-piperidyl]urea]	6.70 to 8.00
CN(Cc1ccnnc1)C1CCN(c2nnc(-c3ccnn3C)c3ccccc23)CC1 [Example 91, N-methyl-1-[4-(2-methylpyrazol-3-yl)phthalazin-1-yl]-N-(pyridazin-4-ylmethyl)piperidin-4-amine]	< 6.70
Cn1nccc1-c1nnc(N2CCC(NS(=O)(=O)c3ccc(F)cc3C(F)(F)F)CC2)c2c1CCC2 [Example 159, 4-fluoro-N-[1-[1-(2-methylpyrazol-3-yl)-6,7-dihydro-5H-cyclopenta[d]pyridazin-4-yl]-4-piperidyl]-2-(trifluoromethyl)benzenesulfonamide]	> 8.00
CN(C(=O)Nc1ccc(F)cc1C(F)(F)F)C1CCN(c2nnc(-c3ccnn3C)c3ncccc23)CC1 [Example 80, 3-[4-fluoro-2-(trifluoromethyl)phenyl]-1-methyl-1-[1-[8-(2-methylpyrazol-3-yl)pyrido[2,3-d]pyridazin-5-yl]-4-piperidyl]urea]	> 8.00
CN(Cc1ncccc1C(F)(F)F)C1CCN(c2nnc(-c3ccnn3C)c3ccccc23)CC1 [Example 147, N-methyl-1-[4-(2-methylpyrazol-3-yl)phthalazin-1-yl]-N-[[3-(trifluoromethyl)-2-pyridyl]methyl]piperidin-4-amine]	6.70 to 8.00
CN(C(=O)Nc1ccc(F)cc1C(F)(F)F)C1CCN(c2nnc(-c3ccnn3C)c3c2CCC3)CC1 [Example 125, 3-[4-fluoro-2-(trifluoromethyl)phenyl]-1-methyl-1-[1-[1-(2-methylpyrazol-3-yl)-6,7-dihydro-5H-cyclopenta[d]pyridazin-4-yl]-4-piperidyl]urea]	> 8.00
